In ChEMBL document CHEMBL1201862, “PubChem BioAssay data set” (2004):
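Compound exposure: 48 hours, 5 concentrations, 96-well plates. GI50: concentration for 50% inhibition of growth.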 Calls of active or inactive are those of the source. Cut-off read from the data, not from the text of the source: active = GI50 up to about 1.1 µM and inactive = higher.

Columns and labels:
Experiment in all cases: inhibition of tumour cell growth, NCI panel, 48 h
[1] = test system: HCT-116
[2] = test system: CCRF-CEM
[3] = test system: RPMI-8226
[4] = test system: K562
[5] = test system: KM12
[6] = test system: IGROV-1
[7] = test system: OVCAR-8
[8] = test system: SNB-19
[9] = test system: NCI-H226
[10] = test system: RXF 393
[11] = test system: SN12C
[12] = test system: SK-MEL-5
[13] = test system: Malme-3M
[14] = test system: UACC-257
[15] = test system: SR
[16] = test system: HOP-92
[17] = test system: OVCAR-5

Row | Structure (SMILES) | GI50 [1] | GI50 [2] | GI50 [3] | GI50 [4] | GI50 [5] | GI50 [6] | GI50 [7] | GI50 [8] | GI50 [9] | GI50 [10] | GI50 [11] | GI50 [12] | GI50 [13] | GI50 [14] | GI50 [15] | GI50 [16] | GI50 [17]
1 | OCCc1cnco1 | > 100 µM (inactive) | > 100 µM (inactive) | > 100 µM (inactive) | > 100 µM (inactive) | > 100 µM (inactive) | > 100 µM (inactive) | > 100 µM (inactive) | > 100 µM (inactive) | > 100 µM (inactive) | > 100 µM (inactive) | > 100 µM (inactive) | > 100 µM (inactive) |  |  |  |  | 
2 | N#CC(C(=O)CCCC(=O)Nc1ccc(Cl)cc1Cl)c1ccc(Cl)cc1 (stereo not given) | > 100 µM (inactive) |  | > 100 µM (inactive) | > 100 µM (inactive) | > 100 µM (inactive) | > 100 µM (inactive) | > 100 µM (inactive) | > 100 µM (inactive) | > 100 µM (inactive) |  | > 100 µM (inactive) |  | > 100 µM (inactive) | > 100 µM (inactive) | > 100 µM (inactive) | > 100 µM (inactive) | > 100 µM (inactive)
3 | Nc1ccn(CCOC(=O)c2ccccc2)c(=O)n1 | > 100 µM (inactive) | > 100 µM (inactive) | > 100 µM (inactive) | > 100 µM (inactive) | > 100 µM (inactive) | > 100 µM (inactive) | > 100 µM (inactive) |  | > 100 µM (inactive) | > 100 µM (inactive) | > 100 µM (inactive) | > 100 µM (inactive) | > 100 µM (inactive) | > 100 µM (inactive) |  | > 100 µM (inactive) | > 100 µM (inactive)
4 | N#C/C(=C\c1ccccc1O)C(N)=O | 77.3 µM (inactive) | 23.6 µM (inactive) | 60.8 µM (inactive) | 51.2 µM (inactive) | 56.5 µM (inactive) | > 100 µM (inactive) | > 100 µM (inactive) | 71.8 µM (inactive) | 46.8 µM (inactive) | 25.7 µM (inactive) | > 100 µM (inactive) | > 100 µM (inactive) | > 100 µM (inactive) | 50.7 µM (inactive) |  | 32.3 µM (inactive) | > 100 µM (inactive)
5 | O=C(Nc1ccccc1C(=O)O)C(=O)C(C(=O)c1ccccc1-c1ccccc1)C1OC(=O)c2ccccc21 (stereo not given) | 22 µM (inactive) | 22.1 µM (inactive) | 25.2 µM (inactive) | 36.1 µM (inactive) | 18 µM (inactive) | 25.6 µM (inactive) | 15.7 µM (inactive) | 16.1 µM (inactive) | 12.5 µM (inactive) | 13.6 µM (inactive) | 17.1 µM (inactive) | 19.2 µM (inactive) | 12.2 µM (inactive) | 16.7 µM (inactive) | 18.3 µM (inactive) |  | 23.6 µM (inactive)
6 | CN(C)CCNC(=O)c1cccc2nc3cc(Cl)ccc3nc12 | 0.764 µM (active) |  | 3.07 µM (inactive) | 1.18 µM (inactive) | 2.51 µM (inactive) | 5.25 µM (inactive) | 1.99 µM (inactive) | 3.4 µM (inactive) | 1.64 µM (inactive) | 2.15 µM (inactive) | 2.07 µM (inactive) | 3.19 µM (inactive) | 1.85 µM (inactive) | 2.82 µM (inactive) | 0.531 µM (active) | 5.77 µM (inactive) | 3.05 µM (inactive)
7 | CC(=O)N(C)C=C1C(=O)N(C)C(=O)N(C)C1=O | > 100 µM (inactive) | > 100 µM (inactive) | > 100 µM (inactive) | > 100 µM (inactive) | > 100 µM (inactive) |  | > 100 µM (inactive) | > 100 µM (inactive) | > 100 µM (inactive) | > 100 µM (inactive) | > 100 µM (inactive) | > 100 µM (inactive) | > 100 µM (inactive) | > 100 µM (inactive) | > 100 µM (inactive) | > 100 µM (inactive) | > 100 µM (inactive)
8 | O=C(O)CNc1c2ccccc2[n+]([O-])c2ccccc12 | 44.6 µM (inactive) | 21.2 µM (inactive) | 31.8 µM (inactive) | 13.9 µM (inactive) | > 100 µM (inactive) | > 100 µM (inactive) | 78.7 µM (inactive) | > 100 µM (inactive) | > 100 µM (inactive) |  | > 100 µM (inactive) | 45.5 µM (inactive) | 61.4 µM (inactive) | > 100 µM (inactive) |  |  | > 100 µM (inactive)
9 | Cn1nc(-c2ccccc2)c(C(=O)/C=C/c2ccc(Cl)cc2)c(N2CCOCC2)c1=O | 1.85 µM (inactive) | 2.45 µM (inactive) | 2.34 µM (inactive) | 2.79 µM (inactive) |  | 4.22 µM (inactive) | 4.13 µM (inactive) | 14.3 µM (inactive) |  | 2.34 µM (inactive) | 5.7 µM (inactive) | 4.98 µM (inactive) |  |  |  | 2.11 µM (inactive) | 
